Read-outs that look alike come from different tables or passages of the source.
Experiments:
stromelysin = stromelysin (Homo sapiens, UniProt P08254); test: Inhibition of stromelysin: hydrolysis of substance P, semicontinuous HPLC-based assay; type: biochemical; settings: for IC50: substrate substance P
[1] = molecular target: T1, human rheumatoid synovial collagenase (Homo sapiens, UniProt P03956); settings: cited from earlier work
T1 sequence (P03956 100-469): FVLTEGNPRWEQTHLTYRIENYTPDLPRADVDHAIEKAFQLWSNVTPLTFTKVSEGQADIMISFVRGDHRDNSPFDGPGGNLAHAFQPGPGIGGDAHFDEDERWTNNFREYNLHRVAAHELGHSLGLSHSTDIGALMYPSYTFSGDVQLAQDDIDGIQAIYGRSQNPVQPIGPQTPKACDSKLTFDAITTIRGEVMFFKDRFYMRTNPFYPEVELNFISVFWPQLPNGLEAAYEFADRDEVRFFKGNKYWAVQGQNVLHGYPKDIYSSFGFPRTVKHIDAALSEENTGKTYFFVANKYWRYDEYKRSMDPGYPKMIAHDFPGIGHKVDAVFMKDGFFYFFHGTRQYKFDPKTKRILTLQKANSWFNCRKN

[2] = molecular target: rabbit bone proteoglycanase (Oryctolagus cuniculus, UniProt P28863); settings: cited from earlier work
rabbit bone proteoglycanase, sequence (P28863 101-478): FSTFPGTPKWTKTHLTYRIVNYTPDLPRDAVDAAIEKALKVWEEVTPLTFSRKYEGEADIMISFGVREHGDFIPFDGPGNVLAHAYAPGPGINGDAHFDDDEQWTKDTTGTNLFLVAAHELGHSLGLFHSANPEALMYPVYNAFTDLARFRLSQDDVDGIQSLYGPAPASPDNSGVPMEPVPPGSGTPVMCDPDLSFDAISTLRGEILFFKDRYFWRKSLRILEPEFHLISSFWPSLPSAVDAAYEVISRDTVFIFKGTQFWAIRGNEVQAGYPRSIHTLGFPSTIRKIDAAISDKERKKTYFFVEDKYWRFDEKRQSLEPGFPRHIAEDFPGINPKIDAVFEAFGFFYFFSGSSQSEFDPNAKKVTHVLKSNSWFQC

[3] = higher Rf isomer (diastereomer), read-out: IC50 ± S.E. Higher Rf isomer
[4] = lower Rf isomer (diastereomer), read-out: IC50 ± S.E. Lower Rf isomer

stromelysin, sequence (P08254 100-477): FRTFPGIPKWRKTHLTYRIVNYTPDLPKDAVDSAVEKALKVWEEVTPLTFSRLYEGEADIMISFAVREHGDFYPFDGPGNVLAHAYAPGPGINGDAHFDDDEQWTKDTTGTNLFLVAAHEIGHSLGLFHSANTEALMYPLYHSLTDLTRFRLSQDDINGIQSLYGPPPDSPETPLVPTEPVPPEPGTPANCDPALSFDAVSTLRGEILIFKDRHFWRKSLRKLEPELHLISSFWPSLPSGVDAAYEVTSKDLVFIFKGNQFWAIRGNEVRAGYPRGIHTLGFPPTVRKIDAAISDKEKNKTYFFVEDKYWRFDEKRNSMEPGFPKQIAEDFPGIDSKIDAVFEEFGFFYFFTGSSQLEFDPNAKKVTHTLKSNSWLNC

Compound | IC50 (stromelysin; [3]) [nM] | IC50 (stromelysin; [4]) [nM] | other results
CC(C)C[C@H](NC(=O)C(CS)CCc1ccccc1)C(=O)Nc1ccccc1 (stereo partly drawn) [Compound 1b, N-(2-Thiomethyl-4-phenylbutanoyl)-(L)-leucine, N-phenylamide] | 1600 ± 500 | 490 ± 100 | 
O=C(O)CCNC(=O)[C@H](Cc1ccccc1)NC(=O)C(CS)CCc1ccccc1 (stereo partly drawn) [Compound 1h, N-(2-Thiomethyl-4-phenylbutanoyl)-(L)-phenylalanine-β-alanine] | 4100 ± 350 |  | 
O=C(N[C@@H](Cc1ccccc1)C(=O)NCc1ccccc1)C(CS)CCc1ccccc1 (stereo partly drawn) [Compound 1g, N-(2-Thiomethyl-4-phenylbutanoyl)-(L)-phenylalanine, N-benzylamide] |  |  | % inh. Higher Rf isomer (stromelysin; higher Rf isomer, @ 1.4 μM): 63 % inh.; % inh. Lower Rf isomer (stromelysin; lower Rf isomer, @ 3.3 μM): 98 % inh.
CC(C)C[C@H](NC(=O)C(CS)CCc1ccccc1)C(N)=O (stereo partly drawn) [Compound 1a, N-(2-Thiomethyl-4-phenylbutanoyl)-(L)-leucinamide] | 3300 ± 400 | 960 ± 100 | 
NC(=O)[C@H](Cc1ccccc1)NC(=O)C(CS)CCc1ccccc1 (stereo partly drawn) [Compound 1e, N-(2-Thiomethyl-4-phenylbutanoyl)-(L)-phenylalaninamide] | 3100 ± 500 | 1900 ± 600 | 
CC(C)C[C@H](NC(=O)C(CS)CCc1ccccc1)C(=O)NCc1ccccc1 (stereo partly drawn) [Compound 1c, N-(2-Thiomethyl-4-phenylbutanoyl)-(L)-leucine, N-benzylamide] | 7300 ± 3300 | 2500 ± 1200 | 
O=C(N[C@@H](Cc1ccccc1)C(=O)Nc1ccccc1)C(CS)CCc1ccccc1 (stereo partly drawn) [Compound 1f, N-(2-Thiomethyl-4-phenylbutanoyl)-(L)-phenylalanine, N-phenylamide] | 1100 ± 300 | 2200 ± 800 | 
CNC(=O)[C@H](Cc1ccc(OC)cc1)NC(=O)[C@H](CC(C)C)NC(CCNC(=O)OCc1ccccc1)C(=O)O (stereo partly drawn) [N-[3-(benzyloxycarbonyl)amino-1-carboxy-n-propyl]-L-leucyl-O-methyl-L-tyrosine, N-methylamide] |  |  | IC50 [1]: 800 nM; IC50 [2]: 500 nM

Reference: patent US5629343A, “N-(mercaptoacyl) peptidyl derivatives as antidegenerative agents” (Merck & Co., Inc., priority 1995, dated 1997)
